What all share (test): FLIPR calcium mobilization (Fluo-4), agonist activation
Assay type in all cases: cell-based
Common to all, as to conditions: HEK 293T-Gα16gust44 cells, pH 7.4

The target in one experiment is T1, Tas2r29 (xtTas2r29) (Xenopus tropicalis, UniProt Q2AB56).
T1 construct: full length, N-terminal sst3 export tag, C-terminal hsv tag; HEK 293T-Galpha16gust44
T1 sequence (Q2AB56 1-290): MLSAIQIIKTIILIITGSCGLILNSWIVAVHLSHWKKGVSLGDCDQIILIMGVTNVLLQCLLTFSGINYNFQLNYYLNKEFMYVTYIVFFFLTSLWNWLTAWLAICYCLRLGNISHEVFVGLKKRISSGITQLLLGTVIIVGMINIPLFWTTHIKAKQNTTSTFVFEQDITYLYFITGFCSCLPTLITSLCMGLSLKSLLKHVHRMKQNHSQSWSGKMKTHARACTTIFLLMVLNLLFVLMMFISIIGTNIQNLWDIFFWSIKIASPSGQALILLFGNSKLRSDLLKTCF

Experiment [1] has as its target T2, zebrafish receptor Tas2r4 (Danio rerio, UniProt Q58WW8).
T2 construct: gene tas2r203; full length, N-terminal sst3 export tag, C-terminal hsv tag; HEK 293T-Galpha16gust44
T2 sequence (Q58WW8 1-305): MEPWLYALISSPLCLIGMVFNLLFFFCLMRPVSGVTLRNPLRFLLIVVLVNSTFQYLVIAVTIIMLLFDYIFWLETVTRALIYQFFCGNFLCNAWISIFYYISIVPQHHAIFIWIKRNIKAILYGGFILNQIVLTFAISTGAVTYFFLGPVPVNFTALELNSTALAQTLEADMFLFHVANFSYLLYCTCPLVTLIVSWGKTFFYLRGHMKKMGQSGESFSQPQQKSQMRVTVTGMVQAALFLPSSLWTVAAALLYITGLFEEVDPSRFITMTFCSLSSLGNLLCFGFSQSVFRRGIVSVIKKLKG

Experiment [2] has as its target T3, chicken Tas2r2 (ggTas2r2) (Gallus gallus, UniProt A0A1D5PXM6).
T3 construct: gene LOC101747503; full length, N-terminal sst3 export tag, C-terminal hsv tag; HEK 293T-Galpha16gust44
T3 sequence (A0A1D5PXM6 1-311): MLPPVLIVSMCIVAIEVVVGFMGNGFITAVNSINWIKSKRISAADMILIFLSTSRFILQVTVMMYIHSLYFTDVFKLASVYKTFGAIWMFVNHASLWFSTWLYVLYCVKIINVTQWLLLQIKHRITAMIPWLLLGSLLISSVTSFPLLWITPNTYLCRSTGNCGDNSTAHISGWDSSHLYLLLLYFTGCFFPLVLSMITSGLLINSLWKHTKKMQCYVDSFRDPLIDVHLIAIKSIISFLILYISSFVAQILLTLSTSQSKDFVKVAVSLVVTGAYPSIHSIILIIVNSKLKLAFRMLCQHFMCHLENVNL

Peptide text beside a SMILES is read from it.

Here are results for three molecules from article PMC11096235, “Membrane-bound chemoreception of bitter bile acids and peptides is mediated by the same subset of bitter taste receptors” (Cellular and Molecular Life Sciences: CMLS, 2024).

For `N[C@@H](Cc1c[nH]c2ccccc12)C(=O)N[C@@H](Cc1c[nH]c2ccccc12)C(=O)N[C@@H](Cc1c[nH]c2ccccc12)C(=O)O` [L-Trp-Trp-Trp] (H-Trp-Trp-Trp-OH), the dF/F result at Tas2r29 (xtTas2r29) is “Tas2r29 exhibited only weak, yet significant, responses to L-Trp-Trp-Trp as well as to CA and GCA”. As for `N[C@@H](Cc1c[nH]c2ccccc12)C(=O)O` [L-Trp], the dF/F result in experiment [1] was “Subsequent testing with L- and D-Trp revealed responsiveness to these amino acids”. In the case of `C[C@H](CCC(=O)O)[C@H]1CC[C@H]2[C@@H]3[C@H](O)C[C@@H]4C[C@H](O)CC[C@]4(C)[C@H]3C[C@H](O)[C@]12C` [cholic acid], the dF/F entry in experiment [2] is reported as “chicken Tas2r2 were only significant for the highest concentrations of the two bile acids”.
